Test results published in patent US8153795B2, “Substituted 1-oxa-3,8-diazaspiro[4.5]-decan-2-one-compounds and the use thereof for producing drugs” (Gruenenthal GmbH, priority 2005, dated 2012).

Legend:
human μ opioid receptor = target: T1, human μ opioid receptor (Homo sapiens, UniProt P35372); experiment: affinity for the human μ opioid receptor, displacement of [3H]-naloxone, CHO-K1 membrane preparation; details: percentage inhibition of specific binding of [3H]-naloxone
T1 construct: purchased NEN, Zaventem, Belgium RB-HOM; host or cells: CHO-K1 cells (recombinant expression, membrane preparation)
Protocol: Receptor affinity for the human p opioid receptor is determined in a homogeneous batch in microtitre plates. To this end, dilution series of the particular substituted 1-oxa-3,8-diazaspiro[4.5]-decan-2-one compounds to be tested were incubated at room temperature for 90 minutes in a total volume of 250 μl with a receptor membrane preparation (15-40 μg of protein per 250 μl of incubation batch) of CHO-K1 cells, which express the human p opioid receptor (RB-HOM receptor membrane preparation from NEN, Zaventem, Belgium) in the presence of 1 nmol/l of the radioactive ligand [^3H]-naloxone (NET719, from NEN, Zaventem, Belgium) and of 1 mg of WGA-SPA beads (wheat germ agglutinin SPA beads from Amersham/Pharmacia, Freiburg, Germany). The incubation buffer used is 50 mmol/l tris-HCl supplemented with 0.05 wt. % of sodium azide and 0.06 wt. % of bovine serum albumin. Nonspecific binding is determined by additionally adding 25 μmol/l of naloxone. Once the ninety minute incubation time had elapsed, the microtitre plates were centrifuged off for 20 minutes at 1000 g and the radioactivity measured in a β counter (Microbeta-Trilux, from PerkinElmer Wallac, Freiburg, Germany). The percentage displacement of the radioactive ligand from its binding to the human p opioid receptor is determined at a concentration of the substances to be tested of 1 μmol/l and stated as percentage inhibition of specific binding.

5-HT transporter = target: T2, 5-HT transporter (Rattus norvegicus, UniProt P31652); experiment: 5-HT uptake inhibition in rat brain synaptosomes (medulla and pons), [3H]-5-HT; assay type: biochemical
T2 construct: from tissue; host or cells: rat brain synaptosomes (P2 fraction) from medulla and pons
Summary of the method: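 Freshly isolated P2 synaptosomes taken from rat hypothalamus (NA) or medulla/pons (5-HT) were incubated at room temperature under O2 with [3H]-NA for 7.5 min or [3H]-5-HT for 5 min. Uptake was measured as filter-retained radioactivity by scintillation counting.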

NA transporter = target: T3, NA transporter (Rattus norvegicus, UniProt Q63380); experiment: noradrenalin uptake inhibition in rat brain synaptosomes (hypothalamus), [3H]-NA; assay type: biochemical
T3 construct: from tissue; host or cells: rat brain synaptosomes (P2 fraction) from hypothalamus
Description: a) Method for Determining Noradrenalin and 5-HT Uptake Inhibition:
Synaptosomes from rat brain regions are freshly isolated for in vitro studies, as described in the publication “The isolation of nerve endings from brain” by E. G. Gray and V. P. Whittaker, J. Anatomy 96, pages 79-88, 1962. The corresponding literature description is hereby introduced as a reference and is deemed to be part of the disclosure.
The tissue (hypothalamus for the determination of noradrenalin uptake inhibition and medulla and pons for the determination of 5-HT uptake inhibition) is homogenised in ice-cooled 0.32 M sucrose (100 mg of tissue/1 mL) in a glass homogeniser with Teflon pestle using five complete up and down strokes at 840 revolutions/minute.
The homogenate is centrifuged at 4° C. for 10 minutes at 1000 g. After subsequent centrifugation at 17000 g for 55 minutes, the synaptosomes (P2 fraction) are obtained, which are resuspended in 0.32 M […] (0.5 mL/100 mg of original weight).
The particular uptake is measured in a 96-well microtitre plate. The volume is 250 μl and the incubation proceeds at room temperature (approx. 20-25° C.) under an O2 atmosphere.
The incubation time is 7.5 minutes for [^3H]-NA and 5 minutes for [^3H]-5-HT. The 96 samples are then filtered through a Unifilter GF/B® microtitre plate (Packard) and washed with 200 mL of incubated buffer using a “Brabdel MPXRI-96T Cell-Harvester”. The Unifilter GF/B plate is dried for 1 hour at 55° C. The plate is then sealed with a Back Seal® (Packard) and 35 μl of scintillation fluid are added per well (Ultima Gold®, Packard). After sealing with a top Seal® (Packard) and establishing an equilibrium (around 5 hours), radioactivity is determined in a “Trilux 1450 Microbeta” (Wallac).
The quantity of protein used in the above determination corresponds to the values known from the literature, as for example described in “Protein measurement with the folin phenol reagent”, Lowry et al., J. Biol. Chem., 193, 265-275, 1951.
A detailed description of the method may additionally be found in the literature, for example in M. Ch. Frink, H.-H. Hennies, W. Engelberger, M. Haurand and B. Wilffert (1996) Arzneim.-Forsch./Drug Res. 46 (III), 11, 1029-1036.

T1 sequence (P35372 whole entry): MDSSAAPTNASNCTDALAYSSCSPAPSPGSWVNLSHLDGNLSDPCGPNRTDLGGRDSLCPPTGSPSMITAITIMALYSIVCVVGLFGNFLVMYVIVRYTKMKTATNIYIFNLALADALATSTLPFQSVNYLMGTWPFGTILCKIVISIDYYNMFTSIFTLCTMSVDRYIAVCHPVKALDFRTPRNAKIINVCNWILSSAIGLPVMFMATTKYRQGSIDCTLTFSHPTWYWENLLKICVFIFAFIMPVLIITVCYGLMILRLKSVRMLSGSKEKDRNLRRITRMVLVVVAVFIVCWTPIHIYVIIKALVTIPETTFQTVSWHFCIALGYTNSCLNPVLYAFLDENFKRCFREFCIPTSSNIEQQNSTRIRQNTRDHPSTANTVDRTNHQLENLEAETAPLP
T2 sequence (P31652 whole entry): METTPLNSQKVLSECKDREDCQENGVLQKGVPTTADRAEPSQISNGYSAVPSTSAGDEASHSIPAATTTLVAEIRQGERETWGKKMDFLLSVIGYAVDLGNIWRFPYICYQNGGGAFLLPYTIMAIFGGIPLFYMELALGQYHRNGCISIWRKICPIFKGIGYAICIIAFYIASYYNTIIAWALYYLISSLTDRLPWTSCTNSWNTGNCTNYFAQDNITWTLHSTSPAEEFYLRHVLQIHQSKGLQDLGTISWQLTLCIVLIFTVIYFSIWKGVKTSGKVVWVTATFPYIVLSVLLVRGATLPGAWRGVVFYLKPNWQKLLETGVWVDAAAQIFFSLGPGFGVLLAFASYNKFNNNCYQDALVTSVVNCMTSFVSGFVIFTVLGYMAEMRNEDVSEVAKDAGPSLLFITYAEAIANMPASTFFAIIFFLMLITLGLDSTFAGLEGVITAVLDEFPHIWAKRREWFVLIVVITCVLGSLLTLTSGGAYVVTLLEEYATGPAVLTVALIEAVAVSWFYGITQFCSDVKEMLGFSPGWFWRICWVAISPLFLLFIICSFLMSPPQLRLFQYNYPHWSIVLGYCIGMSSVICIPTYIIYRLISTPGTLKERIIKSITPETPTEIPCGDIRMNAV
T3 sequence (Q63380 1-617): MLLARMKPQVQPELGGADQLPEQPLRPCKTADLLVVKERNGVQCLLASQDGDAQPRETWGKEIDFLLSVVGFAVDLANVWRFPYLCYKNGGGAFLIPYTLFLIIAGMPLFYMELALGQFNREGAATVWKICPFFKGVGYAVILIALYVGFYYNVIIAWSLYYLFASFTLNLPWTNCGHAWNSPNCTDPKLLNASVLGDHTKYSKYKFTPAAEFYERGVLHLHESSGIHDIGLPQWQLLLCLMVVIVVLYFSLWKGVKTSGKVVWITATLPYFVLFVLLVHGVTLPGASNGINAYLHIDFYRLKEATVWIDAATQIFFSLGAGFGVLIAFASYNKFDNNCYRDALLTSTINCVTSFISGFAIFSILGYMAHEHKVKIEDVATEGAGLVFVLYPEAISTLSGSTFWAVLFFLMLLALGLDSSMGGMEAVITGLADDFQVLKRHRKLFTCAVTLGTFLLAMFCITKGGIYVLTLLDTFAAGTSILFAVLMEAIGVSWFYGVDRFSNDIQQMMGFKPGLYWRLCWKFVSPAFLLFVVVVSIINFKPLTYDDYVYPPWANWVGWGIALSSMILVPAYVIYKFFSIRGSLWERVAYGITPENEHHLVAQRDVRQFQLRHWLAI

In the case of `CC(C)(CC(=O)O)C(=O)N1CCC2(CC1)CN(Cc1ccc(F)c(F)c1)C(=O)O2` [Example 65, 4-[3-(3,4-difluorobenzyl)-2-oxo-1-oxa-3,8-diazaspiro[4.5]dec-8-yl]-3,3-dimethyl-4-oxobutanoic acid], the inhibition at 1 µM (human μ opioid receptor) is reported as 56% and the inhibition at 10 µM (5-HT transporter) is reported as 55%.
`CC(CC(=O)O)CC(=O)N1CCC2(CC1)CN(Cc1ccccc1F)C(=O)O2` (centres unmarked) [Example 67, 5-[3-(2-fluorobenzyl)-2-oxo-1-oxa-3,8-diazaspiro[4.5]dec-8-yl]-3-methyl-5-oxopentanoic acid] showed an inhibition at 1 µM (human μ opioid receptor) of 41%.
For `Cc1ccc(CN2CC3(CCN(C(=O)CC(C)(C)CC(=O)O)CC3)OC2=O)cc1` [Example 68, 3,3-dimethyl-5-[3-(4-methylbenzyl)-2-oxo-1-oxa-3,8-diazaspiro[4.5]dec-8-yl]-5-oxopentanoic acid], the inhibition at 1 µM (human μ opioid receptor) was 46%.
In the case of `CC(CC(=O)O)CC(=O)N1CCC2(CC1)CN(Cc1ccc(F)c(F)c1)C(=O)O2` (centres unmarked) [Example 69, 5-[3-(3,4-difluorobenzyl)-2-oxo-1-oxa-3,8-diazaspiro[4.5]dec-8-yl]-3-methyl-5-oxopentanoic acid], the inhibition at 1 µM (human μ opioid receptor) is reported as 50%.
`O=C(O)COCC(=O)N1CCC2(CC1)CN(Cc1ccc(C(F)(F)F)cc1)C(=O)O2` [Example 70, {2-oxo-2-[2-oxo-3-(4-trifluoromethylbenzyl)-1-oxa-3,8-diazaspiro[4.5]dec-8-yl]ethoxy}acetic acid] gave an inhibition at 1 µM (human μ opioid receptor) of 42%.
Work on `CCOc1ccc(C(=O)N2CCC3(CC2)CN(Cc2ccc(C)cc2)C(=O)O3)cc1` [Example 92, 8-(4-ethoxybenzoyl)-3-(4-methylbenzyl)-1-oxa-3,8-diazaspiro[4.5]decan-2-one] yielded an inhibition at 1 µM (human μ opioid receptor) of 70%, an inhibition at 10 µM (NA transporter) of 73% and an inhibition at 10 µM (5-HT transporter) of 67%.
For `COC(=O)CC(=O)N1CCC2(CC1)CN(Cc1ccc(C#N)cc1)C(=O)O2` [Example 93, 3-[3-(4-cyanobenzyl)-2-oxo-1-oxa-3,8-diazaspiro[4.5]dec-8-yl]-3-oxopropionic acid methyl ester], the inhibition at 1 µM (human μ opioid receptor) was 65%.
With `N#Cc1ccccc1CN1CC2(CCN(C(=O)c3ccc(F)cc3F)CC2)OC1=O` [Example 94, 2-[8-(2,4-difluorobenzoyl)-2-oxo-1-oxa-3,8-diazaspiro[4.5]dec-3-ylmethyl]benzonitrile] the inhibition at 1 µM (human μ opioid receptor) was 62%.
Compound `Cc1cc(C)cc(CN2CC3(CCN(C(=O)c4cccc(N(C)C)c4)CC3)OC2=O)c1` [Example 95, 8-(3-dimethylaminobenzoyl)-3-(3,5-dimethylbenzyl)-1-oxa-3,8-diazaspiro[4.5]decan-2-one] has an inhibition at 1 µM (human μ opioid receptor) of 75%.
Compound `CC(=O)Nc1ccc(C(=O)N2CCC3(CC2)CN(Cc2ccc(F)c(F)c2)C(=O)O3)cc1` [Example 96, N-{4-[3-(3,4-difluorobenzyl)-2-oxo-1-oxa-3,8-diazaspiro[4.5]decane-8-carbonyl]phenyl}acetamide] has an inhibition at 1 µM (human μ opioid receptor) of 78%.
In the case of `O=C1OC2(CCN(C(=O)c3ccc(Br)cc3)CC2)CN1Cc1ccc(F)cc1` [Example 97, 8-(4-bromobenzoyl)-3-(4-fluorobenzyl)-1-oxa-3,8-diazaspiro[4.5]decan-2-one], the inhibition at 1 µM (human μ opioid receptor) is reported as 67%.
Work on `N#Cc1ccc(CN2CC3(CCN(C(=O)C45CC6CC(CC(C6)C4)C5)CC3)OC2=O)cc1` [Example 98, 4-[8-(adamantane-1-carbonyl)-2-oxo-1-oxa-3,8-diazaspiro[4.5]dec-3-ylmethyl]benzonitrile] yielded an inhibition at 1 µM (human μ opioid receptor) of 75%.
Compound `O=C1OC2(CCN(C(=O)c3ccc(Cl)cc3)CC2)CN1Cc1cccc(Br)c1` [Example 100, 3-(3-bromobenzyl)-8-(4-chlorobenzoyl)-1-oxa-3,8-diazaspiro[4.5]decan-2-one] has an inhibition at 1 µM (human μ opioid receptor) of 64%.
`O=C1OC2(CCN(S(=O)(=O)Cc3cccc(Cl)c3)CC2)CN1Cc1ccccc1-c1ccccc1` [Example 149, 3-biphenyl-2-ylmethyl-8-(3-chlorobenzylsulfonyl)-1-oxa-3,8-diazaspiro[4.5]decan-2-one] gave an inhibition at 1 µM (human μ opioid receptor) of 61%.
